# In patent publication US10588963B2, “Methods for providing adjuvanted virosomes and adjuvanted virosomes obtainable thereby” (Bestewil Holding B.V., priority 2014, dated 2020):
# Assay: Equilibrium density gradient centrifugation of adjuvanted RSV virosomes
# Assay type: physicochemical
# Conditions: 10-60% sucrose gradient, spun 66 hrs, after overnight storage at 4° C.
# Description: To 975 μl of virosomes, containing 850 nmol of phospholipids, 25 μl of DMSO solution containing 153 nmol of 3-D-PHAD was rapidly added while agitating the sample on a vortex mixer. After overnight storage at 4° C., the density of the virosomes was analyzed by equilibrium density gradient centrifugation loaded on 10-60% sucrose gradients, which were spun for 66 hrs in a Sorvall AH 650 rotor at 50 krpm. […] Samples from the gradient were analyzed for sucrose concentration by refractometry, giving a measure of density, phosphate (both lipid and 3-D-PHAD), and protein.
# The above adjuvant solutions were added to four tubes with 950 μl of virosomes each, containing 850 nmol of phospholipids, with rapid mixing on a vortex. After overnight storage at 4° C., the density of the virosomes was analyzed by equilibrium density gradient centrifugation on 10-60% sucrose gradients, which were spun for 66 hrs in a Sorvall AH 650 rotor at 120 000 g. Samples from the gradient were analyzed for density, phosphate (both lipid and 3 DPHAD), and protein.
smiles,measurement,value
CCCCCCCCCCCCCC(=O)O[C@H](CCCCCCCCCCC)CC(=O)O[C@@H]1[C@@H](NC(=O)C[C@@H](CCCCCCCCCCC)OC(=O)CCCCCCCCCCC)[C@H](OC[C@H]2O[C@H](O)[C@H](NC(=O)C[C@H](O)CCCCCCCCCCC)[C@@H](O)[C@@H]2O)O[C@H](CO)[C@H]1OP(=O)(O)O.N [3-D-PHAD],density of band in equilibrium density gradient,around 1.12 g/ml
